pEC50, pIC50: −log10 of the molar value. The source made the active and inactive calls. No cut-off for these calls is given here. Bounds are passed on as bounds.

The values below come from ChEMBL document CHEMBL3879901, “Substituted isoquinolin-1(2H)-ones, and methods of use thereof” (2012).

Assay [1] concerns the target Phosphatidylinositol 3-kinase (Mus musculus) (UniProt P26450+P42337). Briefly: Inhibition of PI3K in mouse unfractionated splenocytes assessed as decrease in anti-CD3-stimulated Akt phosphorylation at S473 preincubated for 15 mins followed by anti-CD3 stimulation measured after 5 to 15 mins by phosflow method. It is filed as cell-based.
Assay [2] has as its target PI3-kinase class I (Homo sapiens) (UniProt P27986+P42338+P48736+P42336+O00459+O00329+Q8WYR1+Q92569). Description: Inhibition of PI3K in human PBMC assessed as decrease in anti-CD3-stimulated Akt phosphorylation at S473 preincubated for 15 mins followed by anti-CD3 stimulation measured after 5 to 15 mins by phosflow method.
Assay [3] has as its target RAC-alpha serine/threonine-protein kinase (Mus musculus) (UniProt P31750). Briefly: […] of anti-CD3-stimulated Akt phosphorylation in mouse unfractionated splenocytes preincubated for 15 mins followed by anti-CD3 stimulation measured after 5 to 15 mins by phosflow method. The class given is cell-based.
In assay [4] the target is RAC-alpha serine/threonine-protein kinase (Homo sapiens) (UniProt P31749). Briefly: […] of anti-CD3-stimulated Akt phosphorylation in human PBMC preincubated for 15 mins followed by anti-CD3 stimulation measured after 5 to 15 mins by phosflow method.
The target in assay [5] is PI3K p110 beta/p85 alpha (Homo sapiens, UniProt P42338). Briefly: Inhibition of N-terminal His6-tagged recombinant full-length human p110beta/untagged recombinant full length p85alpha expressed in baculovirus infected Sf21 cells using phosphatidylinositol as substrate in presence of gamma-32P-ATP after 5 mins by thin layer chromatographic method.
PI3K p110 beta/p85 alpha, sequence (P27986 whole entry): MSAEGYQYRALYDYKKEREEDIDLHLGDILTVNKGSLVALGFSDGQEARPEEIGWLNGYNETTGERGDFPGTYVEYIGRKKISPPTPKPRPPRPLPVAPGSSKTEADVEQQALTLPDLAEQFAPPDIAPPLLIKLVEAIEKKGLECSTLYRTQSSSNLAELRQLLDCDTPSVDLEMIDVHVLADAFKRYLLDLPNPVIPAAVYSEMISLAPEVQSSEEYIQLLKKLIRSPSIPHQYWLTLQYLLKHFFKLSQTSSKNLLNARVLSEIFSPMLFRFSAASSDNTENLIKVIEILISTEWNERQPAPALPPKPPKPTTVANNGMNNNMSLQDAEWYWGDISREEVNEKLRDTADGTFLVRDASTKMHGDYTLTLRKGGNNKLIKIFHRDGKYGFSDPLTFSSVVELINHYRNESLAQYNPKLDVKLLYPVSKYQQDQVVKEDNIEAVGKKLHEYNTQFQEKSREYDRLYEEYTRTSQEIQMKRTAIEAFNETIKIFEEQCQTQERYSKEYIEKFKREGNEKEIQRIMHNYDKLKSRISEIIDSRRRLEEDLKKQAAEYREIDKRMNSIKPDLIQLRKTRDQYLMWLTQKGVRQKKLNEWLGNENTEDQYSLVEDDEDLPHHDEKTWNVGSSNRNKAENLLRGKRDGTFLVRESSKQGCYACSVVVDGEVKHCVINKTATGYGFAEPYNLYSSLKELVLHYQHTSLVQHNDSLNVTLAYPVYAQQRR
PI3K p110 beta/p85 alpha, sequence (P42338 whole entry): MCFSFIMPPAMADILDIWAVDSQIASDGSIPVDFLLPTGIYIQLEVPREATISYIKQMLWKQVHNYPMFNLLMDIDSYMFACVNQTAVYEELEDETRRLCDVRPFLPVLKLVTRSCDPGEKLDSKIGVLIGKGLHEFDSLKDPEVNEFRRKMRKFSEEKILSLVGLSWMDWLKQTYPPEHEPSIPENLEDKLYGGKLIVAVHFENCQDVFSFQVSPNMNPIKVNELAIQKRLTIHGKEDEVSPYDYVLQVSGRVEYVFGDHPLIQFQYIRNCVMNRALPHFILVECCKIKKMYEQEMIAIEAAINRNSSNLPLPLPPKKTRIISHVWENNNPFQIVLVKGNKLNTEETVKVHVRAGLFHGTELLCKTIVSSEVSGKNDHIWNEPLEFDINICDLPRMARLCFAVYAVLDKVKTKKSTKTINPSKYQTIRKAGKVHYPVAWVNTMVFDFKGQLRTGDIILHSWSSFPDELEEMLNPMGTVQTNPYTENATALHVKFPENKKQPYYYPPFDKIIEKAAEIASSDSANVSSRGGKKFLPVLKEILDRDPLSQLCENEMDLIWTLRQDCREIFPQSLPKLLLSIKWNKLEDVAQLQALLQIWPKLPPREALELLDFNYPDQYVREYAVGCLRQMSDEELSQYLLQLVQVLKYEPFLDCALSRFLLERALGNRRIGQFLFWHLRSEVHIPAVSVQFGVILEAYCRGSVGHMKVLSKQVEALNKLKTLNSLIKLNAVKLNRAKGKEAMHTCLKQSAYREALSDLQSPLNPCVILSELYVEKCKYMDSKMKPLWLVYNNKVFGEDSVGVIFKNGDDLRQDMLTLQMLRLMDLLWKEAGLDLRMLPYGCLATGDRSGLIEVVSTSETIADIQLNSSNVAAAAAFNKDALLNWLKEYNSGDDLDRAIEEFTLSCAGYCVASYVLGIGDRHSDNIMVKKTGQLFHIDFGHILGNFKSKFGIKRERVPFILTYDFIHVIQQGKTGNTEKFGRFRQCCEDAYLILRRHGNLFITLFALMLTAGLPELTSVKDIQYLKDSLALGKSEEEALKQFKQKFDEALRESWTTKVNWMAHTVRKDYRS
Assay [6] deals with Rattus norvegicus. Briefly: Antiarthritic activity in type 2 collagen-induced Lewis rat arthritis model assessed as reduction in ankle diameter at 10 to 60 mg/kg, po administered every 12 hrs for 16 days measured on day 9 of compound dosing to day 17 of post last dose relative to vehicle-treated control. The class given is functional, organism-based.
Assay [7] deals with Rattus norvegicus. Briefly: Antiarthritic activity in type 2 collagen-induced po dosed Lewis rat arthritis model assessed as reduction in knee inflammation administered every 12 hrs for 16 days measured on day 17 of post last dose by toluidine blue staining-based assay. The class given is functional, organism-based.
In assay [8] the test system is Rattus norvegicus. Description: Antiarthritic activity in type 2 collagen-induced po dosed Lewis rat arthritis model assessed as reduction in knee pannus administered every 12 hrs for 16 days measured on day 17 of post last dose by toluidine blue staining-based assay. It is filed as functional, organism-based.
Assay [9] deals with Rattus norvegicus. Briefly: Antiarthritic activity in type 2 collagen-induced po dosed Lewis rat arthritis model assessed as reduction in cartilage damage in knee administered every 12 hrs for 16 days measured on day 17 of post last dose by toluidine blue staining-based assay. The class given is functional, organism-based.
In assay [10] the test system is Rattus norvegicus. Description: Antiarthritic activity in type 2 collagen-induced po dosed Lewis rat arthritis model assessed as reduction in bone resorption in knee administered every 12 hrs for 16 days measured on day 17 of post last dose by toluidine blue staining-based assay. It is filed as functional, organism-based.
Assay [11] concerns Rattus norvegicus. Briefly: Antiarthritic activity in type 2 collagen-induced Lewis rat arthritis model assessed as reduction in serum anti-type 2 collagen levels at 60 mg/kg, po administered every 12 hrs for 16 days measured on day 17 of post last dose by ELISA relative to control. The class given is functional. On the set-up: scale not given: the % may be the effect or the level left. On the technique in general: ELISA stands for enzyme-linked immunosorbent assay.

For assay [12], the species on record is Homo sapiens. Description: Inhibition of allergen-induced activation of basophilic granulocytes in human whole blood preincubated for 20 mins followed by allergen induction measured after 20 mins using sub micromolar range of compound by basotest assay. The class given is functional, tissue-based.
Assay [13] deals with Phosphatidylinositol 4,5-bisphosphate 3-kinase catalytic subunit gamma isoform (Homo sapiens, UniProt P48736). Briefly: Inhibition of recombinant human C-terminal His6-tagged p110gamma expressed in insect cells using phosphatidylinositol as substrate in presence of gamma-32P-ATP after 5 mins by thin layer chromatographic method.
Phosphatidylinositol 4,5-bisphosphate 3-kinase catalytic subunit gamma isoform, sequence (P48736 whole entry, canonical isoform): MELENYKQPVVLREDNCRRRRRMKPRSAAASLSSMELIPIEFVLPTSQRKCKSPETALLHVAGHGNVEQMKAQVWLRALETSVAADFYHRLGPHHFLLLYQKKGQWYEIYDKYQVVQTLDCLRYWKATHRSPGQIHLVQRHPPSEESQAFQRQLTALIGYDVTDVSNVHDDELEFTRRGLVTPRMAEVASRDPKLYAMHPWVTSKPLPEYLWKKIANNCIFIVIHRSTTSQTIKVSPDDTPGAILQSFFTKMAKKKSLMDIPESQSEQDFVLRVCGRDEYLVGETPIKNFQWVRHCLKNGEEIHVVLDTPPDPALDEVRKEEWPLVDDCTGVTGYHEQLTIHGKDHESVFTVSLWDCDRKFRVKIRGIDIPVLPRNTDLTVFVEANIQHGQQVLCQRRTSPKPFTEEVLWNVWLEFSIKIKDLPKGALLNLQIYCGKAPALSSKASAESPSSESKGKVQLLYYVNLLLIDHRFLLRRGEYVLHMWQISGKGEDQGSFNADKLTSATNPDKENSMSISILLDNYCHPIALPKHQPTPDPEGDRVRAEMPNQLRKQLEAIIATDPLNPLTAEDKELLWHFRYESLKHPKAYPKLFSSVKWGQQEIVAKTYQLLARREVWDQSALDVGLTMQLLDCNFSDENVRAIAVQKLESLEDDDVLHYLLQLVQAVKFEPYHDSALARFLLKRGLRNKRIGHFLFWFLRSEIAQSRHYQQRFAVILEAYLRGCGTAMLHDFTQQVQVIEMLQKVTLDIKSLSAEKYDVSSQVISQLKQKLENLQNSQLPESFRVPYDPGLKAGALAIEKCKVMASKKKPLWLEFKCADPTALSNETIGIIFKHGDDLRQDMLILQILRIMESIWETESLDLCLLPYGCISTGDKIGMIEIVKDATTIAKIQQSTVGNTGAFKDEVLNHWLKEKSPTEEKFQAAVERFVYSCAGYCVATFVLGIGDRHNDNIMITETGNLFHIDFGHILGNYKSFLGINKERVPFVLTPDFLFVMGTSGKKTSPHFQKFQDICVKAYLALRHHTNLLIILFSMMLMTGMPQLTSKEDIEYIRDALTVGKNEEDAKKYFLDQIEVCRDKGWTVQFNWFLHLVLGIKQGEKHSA
Assay [14] has as its target PI3-kinase p110-delta/p85-alpha (Homo sapiens, UniProt O00329). Briefly: Inhibition of N-terminal His6-tagged recombinant full-length human p110delta/untagged recombinant full length p85alpha expressed in baculovirus infected Sf21 cells using phosphatidylinositol as substrate in presence of gamma-32P-ATP after 5 mins by thin layer chromatographic method.
Assay [15] has as its target PI3-kinase p110-alpha/p85-alpha (Homo sapiens, UniProt P42336). Briefly: Inhibition of N-terminal His6-tagged recombinant full-length human p110alpha/untagged recombinant full length human p85alpha expressed in baculovirus infected Sf21 cells using phosphatidylinositol as substrate in presence of gamma-32P-ATP after 5 mins by thin layer chromatographic method.
The nature of assay [16]: Antiproliferative activity against Balb/c mouse splenic B cells preincubated for 30 mins followed by LPS or F(ab')2 donkey anti-mouse IgM and recombinant mouse IL4 stimulation measured after 72 hrs by Alamar Blue reduction assay. The class given is functional, cell-based. (Alamar Blue is a resazurin reagent that responds to reducing activity.)

PI3-kinase p110-alpha/p85-alpha, sequence (P27986 whole entry): as the sequence (P27986 whole entry) above
PI3-kinase p110-alpha/p85-alpha, sequence (P42336 whole entry): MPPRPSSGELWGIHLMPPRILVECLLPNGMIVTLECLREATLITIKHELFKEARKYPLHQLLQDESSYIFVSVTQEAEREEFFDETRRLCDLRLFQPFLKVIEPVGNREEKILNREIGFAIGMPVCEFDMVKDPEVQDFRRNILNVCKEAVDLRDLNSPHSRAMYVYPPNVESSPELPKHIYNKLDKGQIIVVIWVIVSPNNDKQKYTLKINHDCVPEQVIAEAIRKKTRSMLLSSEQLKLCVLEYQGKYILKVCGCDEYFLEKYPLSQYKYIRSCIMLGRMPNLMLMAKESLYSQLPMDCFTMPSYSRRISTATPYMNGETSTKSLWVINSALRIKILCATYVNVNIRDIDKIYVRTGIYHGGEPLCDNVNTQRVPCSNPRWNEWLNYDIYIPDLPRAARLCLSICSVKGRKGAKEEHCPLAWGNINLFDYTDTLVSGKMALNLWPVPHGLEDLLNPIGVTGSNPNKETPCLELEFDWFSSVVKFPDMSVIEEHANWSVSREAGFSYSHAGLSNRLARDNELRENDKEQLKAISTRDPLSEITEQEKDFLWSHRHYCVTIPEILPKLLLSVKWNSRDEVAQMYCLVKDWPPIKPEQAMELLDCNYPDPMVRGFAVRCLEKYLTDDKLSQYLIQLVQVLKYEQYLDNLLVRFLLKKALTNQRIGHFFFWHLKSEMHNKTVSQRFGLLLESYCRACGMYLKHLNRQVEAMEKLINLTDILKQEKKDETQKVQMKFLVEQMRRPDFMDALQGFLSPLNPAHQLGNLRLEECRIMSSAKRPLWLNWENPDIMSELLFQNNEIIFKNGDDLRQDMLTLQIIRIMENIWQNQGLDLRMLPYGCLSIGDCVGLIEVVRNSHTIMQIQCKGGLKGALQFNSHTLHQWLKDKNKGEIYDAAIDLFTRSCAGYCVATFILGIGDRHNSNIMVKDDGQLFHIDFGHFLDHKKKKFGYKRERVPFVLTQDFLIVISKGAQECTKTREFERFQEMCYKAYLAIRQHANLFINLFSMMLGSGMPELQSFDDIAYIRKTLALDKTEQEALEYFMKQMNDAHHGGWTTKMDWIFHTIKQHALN
PI3-kinase p110-delta/p85-alpha, sequence (P27986 whole entry): as the sequence (P27986 whole entry) above
PI3-kinase p110-delta/p85-alpha, sequence (O00329 whole entry): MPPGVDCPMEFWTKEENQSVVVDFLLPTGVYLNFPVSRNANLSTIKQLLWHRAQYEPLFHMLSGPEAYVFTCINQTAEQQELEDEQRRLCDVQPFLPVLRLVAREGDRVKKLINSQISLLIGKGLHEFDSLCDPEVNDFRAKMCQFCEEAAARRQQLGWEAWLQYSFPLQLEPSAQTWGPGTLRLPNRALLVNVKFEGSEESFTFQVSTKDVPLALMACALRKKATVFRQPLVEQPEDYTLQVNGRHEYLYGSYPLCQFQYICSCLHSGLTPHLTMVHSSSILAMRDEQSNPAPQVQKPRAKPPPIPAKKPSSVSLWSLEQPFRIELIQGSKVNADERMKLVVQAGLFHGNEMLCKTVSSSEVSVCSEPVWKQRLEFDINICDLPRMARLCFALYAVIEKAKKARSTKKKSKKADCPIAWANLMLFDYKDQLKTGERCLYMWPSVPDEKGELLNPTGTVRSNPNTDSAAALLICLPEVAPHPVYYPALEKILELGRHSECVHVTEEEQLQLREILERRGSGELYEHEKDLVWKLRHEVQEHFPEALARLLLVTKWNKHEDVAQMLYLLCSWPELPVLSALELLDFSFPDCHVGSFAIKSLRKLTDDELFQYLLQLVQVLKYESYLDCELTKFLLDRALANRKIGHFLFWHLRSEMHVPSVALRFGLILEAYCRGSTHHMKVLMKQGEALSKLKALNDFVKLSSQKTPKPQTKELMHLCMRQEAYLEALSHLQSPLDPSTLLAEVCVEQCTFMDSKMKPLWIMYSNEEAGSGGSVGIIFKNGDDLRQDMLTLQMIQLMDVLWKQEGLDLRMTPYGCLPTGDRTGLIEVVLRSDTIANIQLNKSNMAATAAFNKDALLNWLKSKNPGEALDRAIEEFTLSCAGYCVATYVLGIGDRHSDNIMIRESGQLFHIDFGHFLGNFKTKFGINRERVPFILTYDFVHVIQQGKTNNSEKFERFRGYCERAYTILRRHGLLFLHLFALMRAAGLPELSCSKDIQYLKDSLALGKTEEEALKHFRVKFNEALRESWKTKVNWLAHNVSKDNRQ

In the case of `CO[C@H]1C[C@@H]2CC[C@@H](C)[C@@](O)(O2)C(=O)C(=O)N2CCCC[C@H]2C(=O)O[C@H]([C@H](C)C[C@@H]2CC[C@@H](O)[C@H](OC)C2)CC(=O)[C@H](C)/C=C(\C)[C@@H](O)[C@@H](OC)C(=O)[C@H](C)C[C@H](C)/C=C/C=C/C=C/1C`, the inhibition result in assay [1] and in assay [2] was “Active” throughout. The result in assay [3] and in assay [4] was Active.

For the compound `Cc1ccccc1-n1c(Cn2nc(-c3cc(O)cc(F)c3)c3c(N)ncnc32)cc2cccc(C)c2c1=O`, in assay [5], the pIC50 (commonly −log10 of the IC50, conventionally taken in molar units) is greater than 6.00. The outcome in assay [6] was Active. The Activity result in assay [7] was “Dose-dependent effect”; in assay [8], “Dose-dependent effect”; in [9] it was “Dose-dependent effect”; in assay [10], “Dose-dependent effect”; in [11], 24%. For the same compound, the inhibition entry in [12] is “Active”.

For the compound `Cc1cccc2cc(Cn3nc(-c4cccc(O)c4)c4c(N)ncnc43)n(-c3ccccc3OCCN3CCOCC3)c(=O)c12`, the pIC50 in [13] is greater than 6.00; in assay [14], greater than 7.00; in assay [15] it was less than 5.00; in [5] it was less than 5.00. For the same compound, the pEC50 – broadly, the negative decadic logarithm of the EC50, by convention in mol/L – in assay [16] is greater than 7.00.

As to `Cc1ccccc1-n1c(Cn2nc(-c3cccc(F)c3)c3c(N)ncnc32)cc2cccc(C)c2c1=O`, the pIC50 in [13] was greater than 6.00; in assay [14], greater than 5.00; in [15] it was less than 5.00; in [5], less than 5.00. In addition, the pEC50 in assay [16] was greater than 6.00.

With `Cc1cccc2cc(Cn3nc(C#N)c4c(N)ncnc43)n(-c3ccccc3F)c(=O)c12`, the pIC50 was less than 5.00 in assay [13], greater than 7.00 in [14], less than 5.00 in assay [15] and less than 5.00 in [5]. In addition, the pEC50 in assay [16] is greater than 6.00.

With `Cc1ccccc1-n1c(Cn2nc(-c3ccc4oc(N)nc4c3)c3c(N)ncnc32)cc2cccc(C)c2c1=O`, the pIC50 in assay [13] was greater than 7.00; in assay [14] it was greater than 7.00; in assay [15] it was greater than 5.00; in assay [5] it was greater than 5.00. Also, the pEC50 in [16] was greater than 6.00.

As for `Cc1cccc2cc(Cn3nc(-c4cn[nH]c4)c4c(N)ncnc43)n(-c3ccccc3F)c(=O)c12`, the pIC50 in assay [13] was greater than 6.00; in assay [14] it was greater than 7.00; in assay [15] it was less than 5.00; in [5] it was greater than 5.00. For the same compound, in [16], the pEC50 was greater than 6.00.

Consider `Cc1cccc2cc(Cn3nc(C#C[C@@H](C)O)c4c(N)ncnc43)n(C3CC3)c(=O)c12`, for which the pIC50 was greater than 6.00 in assay [13], greater than 7.00 in assay [14], less than 5.00 in assay [15] and greater than 6.00 in [5]. The pEC50 in [16] is greater than 6.00.

As to `Cc1cccc2cc(Cn3nc(C#C[C@@H](C)O)c4c(N)ncnc43)n(-c3ccccc3F)c(=O)c12`, the pIC50 in assay [13] was greater than 6.00; in [14], greater than 7.00; in assay [15], less than 5.00; in [5], less than 5.00. In addition, the pEC50 in [16] was greater than 6.00.

`CCc1ccccc1-n1c(Cn2nc(C#C[C@@H](C)O)c3c(N)ncnc32)cc2cccc(C)c2c1=O`: the pIC50 is greater than 6.00 in [13], greater than 7.00 in assay [14], less than 5.00 in [15] and greater than 5.00 in [5]. In [16], the pEC50 was greater than 7.00.

Take `Cc1ccccc1-n1c(Cn2nc(/C=C3/SC(=O)NC3=O)c3c(N)ncnc32)cc2cccc(C)c2c1=O`: the pIC50 in [13] is greater than 7.00; in [14], greater than 7.00; in [15], greater than 5.00; in assay [5] it was greater than 5.00. The pEC50 in assay [16] is greater than 7.00.
